Measurements taken from PMC6444592, “Citrullination of HP1γ chromodomain affects association with chromatin” (Epigenetics & Chromatin, 2019).

How the values were obtained:
Assay type in all cases: cell-based, mouse
mESCs [1] = assay: live-cell single-particle tracking, 13.5 ms, jump distance analysis; conditions: 13.5 ms
Description: (§1) Parental E14 mouse embryonic stem cell (mESC) line was profiled by transcriptome analysis, qPCR and potency assays and was routinely tested for mycoplasma contamination and tested negative. Cells were cultured in DMEM (Gibco) supplemented with 15% standard FCS (Gibco), 0.1 mM non-essential amino acids (Gibco), 1% penicillin/streptomycin, 2 mM L-glutamine (Gibco), 1 mM sodium pyruvate (Gibco), 0.1 mM β-mercaptoethanol (Life Technologies) and 10^6 units/l mLIF (ESGRO, Millipore). E14 cells were stored in incubators at 37 °C in 7.5% CO2 (100% humidity) and maintained in 0.1% gelatin coated 10-cm culture dishes with 1:6 passaging every 2 days. Media was changed on a daily basis. E14 ESCs expressing mouse mEos3.2–HaloTag-HP1 fusion proteins were generated by transfecting appropriate pSB7 plasmids into E14 cells using Lipofectamine 2000 transfection reagent (Invitrogen), followed by selection in 600 µg/ml geneticin (Life Technologies). After 2 weeks of geneticin selection, cells were sorted using a Sony SH800S cell sorter for the expression of mEos3.2. Differentiation of ESCs was induced by LIF withdrawal. ESCs cultured in complete ES cell media (+ LIF) were trypsinised and washed twice in 1x PBS to remove residual LIF, seeded into ES cell media without LIF and incubated for 24, 48 or 72 h.
An IX73 Olympus inverted microscope was used with circularly polarised laser beams aligned and focused at the back aperture of an Olympus 1.40 NA 100 × oil objective (Universal Plan Super Apochromat, 100 × , NA 1.40, UPLSAPO100XO/1.4). Continuous wavelength diode laser light sources used include a 561-nm (Cobolt, Jive 200, 200 mW) and a 405-nm laser (Stradus, Toptica, 405–100, 100 mW). Oblique angle illumination was achieved by aligning the laser off axis such that the emergent beam at the sample interface was near-collimated and incident at an angle slightly less than the critical angle θc ~ 67° for a glass/water interface. This generated a ~ 50 μm diameter excitation footprint. The power of the collimated beams at the back aperture of the microscope was 10 kW/cm^2 and 10–100 W/cm^2 for the 561-nm and 405-nm laser beams, respectively. The lasers were reflected by dichroic mirrors (Semrock, Di01-R405/488/561/635). The fluorescence emission was collected through the same objective and then further filtered using a combination of long-pass and band-pass filters (BLP01-561R and FF01-587/35 for 561 nm excitation). The emission signal was projected onto an EMCCD (Photometrics, Evolve 512 Delta) with an electron multiplication gain of 250 ADU/photon operating in a frame transfer mode.
mESCs expressing mEos3.2–HaloTag-tagged HP1γ were passaged 2 days before imaging onto 35-mm glass bottom dishes No 1.0 (MatTek Corporation P35G-1.0-14-C Case) in phenol red-free serum and LIF conditions, if not stated otherwise. Just before single-particle tracking (SPT) imaging experiments, cells were labelled with 0.5 nM HaloTag–JF549 ligand for at least 15 min, followed by two washes in PBS and a 30-min incubation at 37 °C in media, before imaging the cells in fresh phenol red-free serum and LIF conditions. Cells were under-labelled to prevent overlap of fluorophores during SPT. Using 561 nm excitation, fluorescence images were collected as movies of 10,000 frames at 13.5 ms or 1000 to 5000 frames at 500 ms exposure. For live-cell tracking, data were collected for three biological replicates on separate dishes and the average values compared.
Live-cell 13.5-ms single-molecule traces were analysed using software that detects single-molecule trajectories from SPT movies. Briefly, the code detected puncta positions in each image frame using a brightness-weighted centroid after applying a band-pass filter to remove low-frequency background and high-frequency noise from the image data. To track the HP1 single molecules, only fluorescent puncta smaller than 3 pixels and with a signal to noise greater than 8 were analysed. […]

mESCs [2] = assay: HP1γ foci formation, fluorescence imaging of mEos3.2; conditions: +/− LIF 72 h
Description: as §1, with “After 2 weeks of geneticin selection, cells were sorted using a Sony SH800S cell sorter for the expression of mEos3.2. Differentiation of ESCs was induced by LIF withdrawal. ESCs cultured in complete ES cell media (+ LIF) were trypsinised and washed twice in 1x PBS to remove residual LIF, seeded into ES cell media without LIF and incubated for 24, 48 or 72 h.” left out
An IX73 Olympus inverted microscope was used with circularly polarised laser beams aligned and focused at the back aperture of an Olympus 1.40 NA 100 × oil objective (Universal Plan Super Apochromat, 100 × , NA 1.40, UPLSAPO100XO/1.4). […] The fluorescence emission was collected through the same objective and then further filtered using a combination of long-pass and band-pass filters (BLP01-561R and FF01-587/35 for 561 nm excitation). […]

mESCs [3] = assay: pluripotency marker mRNA (RT-PCR) and morphology of mESCs; conditions: mESCs stably expressing fusion protein; +/− LIF; n = 2
Description: as §1, with “Differentiation of ESCs was induced by LIF withdrawal. ESCs cultured in complete ES cell media (+ LIF) were trypsinised and washed twice in 1x PBS to remove residual LIF, seeded into ES cell media without LIF and incubated for 24, 48 or 72 h.” left out
Cells were lysed using QIAzol® lysis reagent (Qiagen) and total RNA was isolated using RNeasy® Mini Kit with in column DNase treatment (Qiagen). […] Relative expression was calculated with the 2^−ΔΔCt method, normalising to the housekeeping gene β-actin. Data were analysed using GraphPad Prism 7 software. […]

HP1γWT: full-length mouse HP1γ wild type, as GST or mEos3.2–HaloTag fusion protein
Diffusion coefficient, Bound (mESCs [1]; +LIF, replicate i): 0.100 µm2s-1 | Diffusion coefficient, Diffusing (mESCs [1]; +LIF, replicate i): 0.780 µm2s-1 | Percentage, Bound (mESCs [1]; +LIF, replicate i): 36.7% | Percentage, Diffusing (mESCs [1]; +LIF, replicate i): 63.3% | Diffusion coefficient, Bound (mESCs [1]; +LIF, replicate ii): 0.100 µm2s-1 | Diffusion coefficient, Diffusing (mESCs [1]; +LIF, replicate ii): 0.812 µm2s-1 | Percentage, Bound (mESCs [1]; +LIF, replicate ii): 30% | Percentage, Diffusing (mESCs [1]; +LIF, replicate ii): 70% | Diffusion coefficient, Bound (mESCs [1]; +LIF, replicate iii): 0.100 µm2s-1 | Diffusion coefficient, Diffusing (mESCs [1]; +LIF, replicate iii): 0.784 µm2s-1 | Percentage, Bound (mESCs [1]; +LIF, replicate iii): 32.4% | Percentage, Diffusing (mESCs [1]; +LIF, replicate iii): 67.6% | Diffusion coefficient, Bound (mESCs [1]; +LIF, replicate iv): 0.097 µm2s-1 | Diffusion coefficient, Diffusing (mESCs [1]; +LIF, replicate iv): 1.019 µm2s-1 | Percentage, Bound (mESCs [1]; +LIF, replicate iv): 49% | Percentage, Diffusing (mESCs [1]; +LIF, replicate iv): 51% | Diffusion coefficient, Bound (mESCs [1]; +LIF, replicate v): 0.089 µm2s-1 | Diffusion coefficient, Diffusing (mESCs [1]; +LIF, replicate v): 0.972 µm2s-1 | Percentage, Bound (mESCs [1]; +LIF, replicate v): 38.8% | Percentage, Diffusing (mESCs [1]; +LIF, replicate v): 61.2% | Percentage of molecules, diffusing (mESCs [1]; +LIF, mESCs, mean ± SD (n = 5–9)): 63% | diffusion rate, effect of LIF withdrawal (mESCs [1]; −LIF 72 h versus +LIF): no significant effect | Diffusion coefficient, Bound (mESCs [1]; −LIF, replicate i): 0.082 µm2s-1 | Diffusion coefficient, Diffusing (mESCs [1]; −LIF, replicate i): 0.733 µm2s-1 | Percentage, Bound (mESCs [1]; −LIF, replicate i): 51.4% | Percentage, Diffusing (mESCs [1]; −LIF, replicate i): 48.6% | Diffusion coefficient, Bound (mESCs [1]; −LIF, replicate ii): 0.092 µm2s-1 | Diffusion coefficient, Diffusing (mESCs [1]; −LIF, replicate ii): 0.912 µm2s-1 | Percentage, Bound (mESCs [1]; −LIF, replicate ii): 51% | Percentage, Diffusing (mESCs [1]; −LIF, replicate ii): 49% | Diffusion coefficient, Bound (mESCs [1]; −LIF, replicate iii): 0.100 µm2s-1 | Diffusion coefficient, Diffusing (mESCs [1]; −LIF, replicate iii): 1.037 µm2s-1 | Percentage, Bound (mESCs [1]; −LIF, replicate iii): 31.3% | Percentage, Diffusing (mESCs [1]; −LIF, replicate iii): 68.7% | Diffusion coefficient, Bound (mESCs [1]; −LIF, replicate iv): 0.100 µm2s-1 | Diffusion coefficient, Diffusing (mESCs [1]; −LIF, replicate iv): 1.007 µm2s-1 | Percentage, Bound (mESCs [1]; −LIF, replicate iv): 30.9% | Percentage, Diffusing (mESCs [1]; −LIF, replicate iv): 69.1% | Diffusion coefficient, Bound (mESCs [1]; −LIF, replicate v): 0.100 µm2s-1 | Diffusion coefficient, Diffusing (mESCs [1]; −LIF, replicate v): 0.930 µm2s-1 | Percentage, Bound (mESCs [1]; −LIF, replicate v): 27.9% | Percentage, Diffusing (mESCs [1]; −LIF, replicate v): 72.1% | foci formation, WT- versus R38/9A-expressing cells (mESCs [2]): no apparent difference | effect of exogenous expression on pluripotency marker mRNA and morphology (mESCs [3]): no discernible effect on mESC differentiation
